US20230167088A1, “1-PYRAZINYLPYRAZOLYL-3-OXYALKYL ACIDS AND THEIR DERIVATIVES, AND THEIR USE FOR CONTROL OF UNDESIRED PLANT GROWTH” (BAYER AKTIENGESELLSCHAFT, priority 2020, published 2023)

Columns and labels:
[1] = test system: ECHCG; test: Herbicidal pre-emergence action 2b (doubly sown, 1280 g/ha); assay type: in vivo, Echinochloa crus-galli; conditions: doubly sown pots, dosage 1280 g/ha, visual scoring after about 3 weeks
Summary of the method: (§1)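 Read-out: visual percentage damage relative to untreated controls, scored after roughly 3 weeks in the greenhouse, where 100% means plants died and 0% equals control. Seeds were sown two species per pot in sandy loam and covered before the compounds, formulated as WP or EC with 0.5% additive, were sprayed onto the soil at 600 L/ha.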

[2] = test system: ABUTH; test: Herbicidal post-emergence action 1b (twin sowing, 1280 g/ha); assay type: in vivo, Abutilon theophrasti; conditions: dosage 1280 g/ha, visual rating about 3 weeks after treatment
Method: (§2) [table] b) Seeds of mono- and dicotyledonous weed plants are placed in plastic pots in sandy loam soil (twin sowing with one species each of mono- or dicotyledonous weed plants per pot), covered with soil and cultivated in a greenhouse under controlled growth conditions. 2 to 3 weeks after sowing, the test plants are treated at the one-leaf stage. The compounds of the invention, formulated in the form of wettable powders (WP) or as emulsion concentrates (EC), are applied to the green parts of the plants as aqueous suspension or emulsion with addition of 0.5% additive at a water application rate equivalent to 600 litres per hectare. After the test plants have been kept in the greenhouse under optimum growth conditions for about 3 weeks, the activity of the preparations is rated visually in comparison to untreated controls. For example, 100% activity=the plants have died, 0% activity=like control plants. Tables A16 to A21 below show the effects of selected compounds of the general formula (I) according to Tables 1 and 2 on various harmful plants and at an application rate corresponding to 1280 g/ha, which were obtained by the experimental procedure mentioned above.

[3] = test system: STEME; test: Herbicidal pre-emergence action 2b (doubly sown, 1280 g/ha); assay type: in vivo, Stellaria media; conditions: doubly sown pots, dosage 1280 g/ha, visual scoring after about 3 weeks
Summary of the method: as §1

[4] = test system: POAAN; test: as above; assay type: in vivo, Poa annua; conditions: doubly sown pots, dosage 1280 g/ha, visual scoring after about 3 weeks
Summary of the method: as §1

[5] = test system: MATIN; test: Herbicidal post-emergence action 1b (twin sowing, 1280 g/ha); assay type: in vivo, Matricaria inodora; conditions: dosage 1280 g/ha, visual rating about 3 weeks after treatment
Method: as §2

[6] = test system: ECHCG; test: as above; assay type: in vivo, Echinochloa crus-galli; conditions: dosage 1280 g/ha, visual rating about 3 weeks after treatment
Method: as §2

[7] = test system: MATIN; test: Herbicidal pre-emergence action 2b (doubly sown, 1280 g/ha); assay type: in vivo, Matricaria inodora; conditions: doubly sown pots, dosage 1280 g/ha, visual scoring after about 3 weeks
Summary of the method: as §1

[8] = test system: AMARE; test: as above; assay type: in vivo, Amaranthus retroflexus; conditions: doubly sown pots, dosage 1280 g/ha, visual scoring after about 3 weeks
Summary of the method: as §1

[9] = test system: POAAN; test: Herbicidal post-emergence action 1b (twin sowing, 1280 g/ha); assay type: in vivo, Poa annua; conditions: dosage 1280 g/ha, visual rating about 3 weeks after treatment
Summary of the method: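 Sow paired weed species in sandy loam pots and grow in the greenhouse; at the one-leaf stage (2–3 weeks) spray green parts with compound suspension or emulsion containing 0.5% additive at 600 L water/ha; keep about 3 weeks, then score damage visually relative to untreated plants.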

[10] = test system: DIGSA; test: as above; assay type: in vivo, Digitaria sanguinalis; conditions: dosage 1280 g/ha, visual rating about 3 weeks after treatment
Method: as §2

[11] = test system: STEME; test: as above; assay type: in vivo, Stellaria media; conditions: dosage 1280 g/ha, visual rating about 3 weeks after treatment
Method: as §2

[12] = test system: DIGSA; test: Herbicidal pre-emergence action 2b (doubly sown, 1280 g/ha); assay type: in vivo, Digitaria sanguinalis; conditions: doubly sown pots, dosage 1280 g/ha, visual scoring after about 3 weeks
From the text: [table] b) Seeds of mono- and dicotyledonous weed plants are placed in plastic pots in sandy loam soil (doubly sown with one species each of mono- or dicotyledonous weed plants per pot) and covered with soil. The compounds of the invention, formulated in the form of wettable powders (WP) or as emulsion concentrates (EC), are then applied onto the surface of the covering soil as aqueous suspension or emulsion with addition of 0.5% additive at a water application rate equivalent to 600 litres per hectare. After the treatment, the pots are placed in a greenhouse and kept under good growth conditions for the trial plants. After about 3 weeks, the effect of the preparations is scored visually in comparison with untreated controls as percentages. For example, 100% activity=the plants have died, 0% activity=like control plants. Tables B16 to B21 below show the effects of selected compounds of the general formula (I) according to Tables 1 and 2 on various harmful plants and at an application rate corresponding to 1280 g/ha, which were obtained by the experimental procedure mentioned above.

[13] = test system: AMARE; test: Herbicidal pre-emergence action 2a (greenhouse pots, visual scoring); assay type: in vivo, Amaranthus retroflexus; conditions: dosage 320 g/ha, visual scoring after about 3 weeks vs untreated controls
Summary of the method: (§3)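 Weed and crop seeds placed in pots and covered with soil; aqueous suspension or emulsion of WP/EC formulation applied to the soil surface before emergence (600 l/ha, 0.5% additive, 320 and/or 80 g/ha). Pots kept in the greenhouse about 3 weeks; visual percentage scoring.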

[14] = test system: ALOMY; test: as above; assay type: in vivo, Alopecurus myosuroides; conditions: dosage 320 g/ha, visual scoring after about 3 weeks
Summary of the method: as §3

[15] = test system: LOLRI; test: as above; assay type: in vivo, Lolium rigidum; conditions: dosage 320 g/ha, visual scoring after about 3 weeks vs untreated controls
Summary of the method: as §3

[16] = test system: AVEFA; test: Herbicidal post-emergence action 1a (greenhouse pots, visual rating); assay type: in vivo, Avena fatua; conditions: Dosage 80 g/ha; rated visually about 3 weeks after treatment; 100% = plants have died, 0% = like control plants
Summary of the method: (§4)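 Weeds and crops sown in sandy loam in greenhouse pots were sprayed post-emergence at the one-leaf stage (2–3 weeks after sowing) with WP or EC formulations plus 0.5% additive at 600 l/ha water, 320 and/or 80 g/ha. About 3 weeks later damage was rated visually against untreated controls (0% = no effect, 100% = dead).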

[17] = test system: AVEFA; test: Herbicidal pre-emergence action 2a (greenhouse pots, visual scoring); assay type: in vivo, Avena fatua; conditions: dosage 320 g/ha, visual scoring after about 3 weeks
Summary of the method: as §3

[18] = test system: AMARE; test: Herbicidal post-emergence action 1a (greenhouse pots, visual rating); assay type: in vivo, Amaranthus retroflexus; conditions: dosage 80 g/ha, visual rating about 3 weeks after treatment
Summary of the method: as §4

[19] = test system: VIOTR; test: Herbicidal pre-emergence action 2a (greenhouse pots, visual scoring); assay type: in vivo, Viola tricolor; conditions: dosage 320 g/ha, visual scoring after about 3 weeks vs untreated controls
From the text: [table] a) Seeds of monocotyledonous and dicotyledonous weed plants and crop plants are placed in plastic or organic plant pots and covered with soil. The compounds of the invention, formulated in the form of wettable powders (WP) or as emulsion concentrates (EC), are then applied onto the surface of the covering soil as aqueous suspension or emulsion with addition of 0.5% additive at a water application rate of 600 1/ha (converted). After the treatment, the pots are placed in a greenhouse and kept under good growth conditions for the trial plants. After about 3 weeks, the effect of the preparations is scored visually in comparison with untreated controls as percentages. For example, 100% activity=the plants have died, 0% activity=like control plants. Tables B1 to B15 below show the effects of selected compounds of the general formula (I) according to Tables 1 and 2 on various harmful plants and an application rate corresponding to 320 g/ha and/or 80 g/ha, which were obtained by the experimental procedure mentioned above.

[20] = test system: ALOMY; test: Herbicidal post-emergence action 1a (greenhouse pots, visual rating); assay type: in vivo, Alopecurus myosuroides; conditions: Dosage 80 g/ha; rated visually about 3 weeks after treatment; 100% = plants have died, 0% = like control plants
Summary of the method: as §4

[21] = test system: VERPE; test: Herbicidal pre-emergence action 2a (greenhouse pots, visual scoring); assay type: in vivo, Veronica persica; conditions: dosage 320 g/ha, visual scoring after about 3 weeks vs untreated controls
Summary of the method: as §3

[22] = test system: POLCO; test: as above; assay type: in vivo, Polygonum convolvulus; conditions: dosage 320 g/ha, visual scoring after about 3 weeks vs untreated controls
Summary of the method: as §3

Row | SMILES | Pre-emergence action at 1280 g/ha against ECHCG in % [1] | Post-emergence action at 1280 g/ha against ABUTH in % [2] | Pre-emergence action at 1280 g/ha against STEME in % [3] | Pre-emergence action at 1280 g/ha against POAAN in % [4] | Post-emergence action at 1280 g/ha against MATIN in % [5] | Post-emergence action at 1280 g/ha against ECHCG in % [6] | Pre-emergence action at 1280 g/ha against MATIN in % [7] | Pre-emergence action at 1280 g/ha against AMARE in % [8] | Post-emergence action at 1280 g/ha against POAAN in % [9] | Post-emergence action at 1280 g/ha against DIGSA in % [10] | Post-emergence action at 1280 g/ha against STEME in % [11] | Pre-emergence action at 1280 g/ha against DIGSA in % [12] | further results
1 | O=C(O)COc1nn(-c2nccnc2Cl)c(-c2ccc(F)nc2)c1Br [Example I-73] | 100% | 90% | 100% | 100% | 100% | 100% | 100% | 100% | 100% |  |  |  | 
2 | O=C(COc1nn(-c2cnccn2)c(-c2ccc(F)nc2)c1Br)OCc1ccccn1 [Example I-70] | 100% | 100% | 100% | 100% | 100% | 90% | 100% | 100% |  | 100% | 100% | 100% | 
3 | COC(=O)[C@@H](C)Oc1nn(-c2cnccn2)c(-c2cncnc2)c1Br [Example I-30] | 100% | 90% | 100% | 100% |  | 90% | 90% | 100% | 100% | 100% | 90% | 100% | 
4 | COC(=O)[C@@H](C)Oc1nn(-c2nccnc2Cl)c(-c2ccc(F)nc2)c1Br [Example I-72] | 100% |  | 100% | 100% | 100% | 100% | 100% | 100% | 100% | 100% | 90% | 100% | Pre-emergence action against AMARE in % [13]: 100%; Pre-emergence action against ALOMY in % [14]: 90%; Pre-emergence action against LOLRI in % [15]: 100%; Post-emergence action against AVEFA in % [16]: 90%; Pre-emergence action against AVEFA in % [17]: 80%; Post-emergence action against AMARE in % [18]: 80%; Pre-emergence action against VIOTR in % [19]: 90%; Post-emergence action against ALOMY in % [20]: 90%; Pre-emergence action against VERPE in % [21]: 80%; Pre-emergence action against POLCO in % [22]: 90%
5 | CCOC(=O)COc1nn(-c2cnccn2)c(-c2ccc(F)nc2)c1C(F)(F)F [Example I-66] | 90% | 90% | 100% | 100% | 90% |  | 100% | 100% | 90% |  |  | 100% | 
